Results published in PubChem BioAssay (NCI).
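GI50 is the concentration that inhibits growth by half. TGI marks complete inhibition of growth.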

Assays:
Assay in all cases: growth of human tumour cells (NCI), 384-well format
K-562 leukemia = system: K-562 leukemia
U251 glioblastoma = system: U251 glioblastoma
SK-MEL-2 melanoma = system: SK-MEL-2 melanoma
RXF 393 renal = system: RXF 393 renal
T-47D breast = system: T-47D breast
SK-MEL-5 melanoma = system: SK-MEL-5 melanoma
UO-31 renal = system: UO-31 renal
SR leukemia = system: SR leukemia
EKVX NSCLC = system: EKVX NSCLC
A549 NSCLC = system: A549 NSCLC
RPMI-8226 leukemia = system: RPMI-8226 leukemia
CAKI-1 renal = system: CAKI-1 renal
MALME-3M melanoma = system: MALME-3M melanoma
HL-60(TB) leukemia = system: HL-60(TB) leukemia
PC-3 prostate = system: PC-3 prostate
SNB-19 CNS = system: SNB-19 CNS
OVCAR-5 ovarian = system: OVCAR-5 ovarian
HCT-15 colon = system: HCT-15 colon
CCRF-CEM leukemia = system: CCRF-CEM leukemia
ACHN renal = system: ACHN renal
OVCAR-4 ovarian = system: OVCAR-4 ovarian
HS 578T breast = system: HS 578T breast
BT-549 breast = system: BT-549 breast
LOX IMVI melanoma = system: LOX IMVI melanoma
NCI-H460 NSCLC = system: NCI-H460 NSCLC
MOLT-4 leukemia = system: MOLT-4 leukemia
KM12 colon = system: KM12 colon
UACC-257 melanoma = system: UACC-257 melanoma
SK-OV-3 ovarian = system: SK-OV-3 ovarian
TK-10 renal = system: TK-10 renal

CN1C(=O)[C@@H](NC(=O)[C@H](CCC(F)(F)F)[C@H](CCC(F)(F)F)C(N)=O)N=C(c2ccccc2)c2ccccc21
TGI (K-562 leukemia): > 100 µM
GI50 (U251 glioblastoma): 98.8 µM
TGI (U251 glioblastoma): > 100 µM
GI50 (SK-MEL-2 melanoma): > 100 µM
TGI (SK-MEL-2 melanoma): > 100 µM
GI50 (RXF 393 renal): 23.9 µM
TGI (RXF 393 renal): > 84.7 µM
GI50 (T-47D breast): 14.6 µM
TGI (T-47D breast): 65 µM
GI50 (SK-MEL-5 melanoma): > 59.4 µM
TGI (SK-MEL-5 melanoma): > 100 µM
GI50 (UO-31 renal): 60.1 µM
TGI (UO-31 renal): > 100 µM
GI50 (SR leukemia): 13.6 µM
TGI (SR leukemia): 33.6 µM
GI50 (EKVX NSCLC): > 100 µM
TGI (EKVX NSCLC): > 100 µM
GI50 (A549 NSCLC): 67.5 µM
TGI (A549 NSCLC): > 100 µM
GI50 (RPMI-8226 leukemia): 48.3 µM
TGI (RPMI-8226 leukemia): > 100 µM
GI50 (CAKI-1 renal): 58.2 µM
TGI (CAKI-1 renal): > 100 µM
GI50 (MALME-3M melanoma): > 100 µM
TGI (MALME-3M melanoma): > 100 µM
GI50 (HL-60(TB) leukemia): > 51.6 µM
TGI (HL-60(TB) leukemia): > 100 µM
GI50 (PC-3 prostate): > 94.6 µM
TGI (PC-3 prostate): > 100 µM
GI50 (SNB-19 CNS): > 100 µM
TGI (SNB-19 CNS): > 100 µM
GI50 (OVCAR-5 ovarian): > 100 µM
TGI (OVCAR-5 ovarian): > 100 µM
GI50 (HCT-15 colon): > 95.7 µM
TGI (HCT-15 colon): > 100 µM
GI50 (CCRF-CEM leukemia): 53.3 µM
TGI (CCRF-CEM leukemia): > 100 µM
GI50 (ACHN renal): > 100 µM
TGI (ACHN renal): > 100 µM
GI50 (OVCAR-4 ovarian): 43.4 µM
TGI (OVCAR-4 ovarian): > 100 µM
GI50 (HS 578T breast): 24.7 µM
TGI (HS 578T breast): > 100 µM
GI50 (BT-549 breast): > 100 µM
TGI (BT-549 breast): > 100 µM
GI50 (LOX IMVI melanoma): > 100 µM
TGI (LOX IMVI melanoma): > 100 µM
GI50 (NCI-H460 NSCLC): 84.4 µM
TGI (NCI-H460 NSCLC): > 100 µM
GI50 (MOLT-4 leukemia): 19.8 µM
TGI (MOLT-4 leukemia): > 100 µM
GI50 (KM12 colon): > 100 µM
TGI (KM12 colon): > 100 µM
GI50 (UACC-257 melanoma): > 63.2 µM
TGI (UACC-257 melanoma): > 100 µM
GI50 (SK-OV-3 ovarian): > 100 µM
TGI (SK-OV-3 ovarian): > 100 µM
GI50 (TK-10 renal): > 100 µM
TGI (TK-10 renal): > 100 µM
